As usually defined, the Ki is the dissociation constant of the complex between target and ligand, obtained from inhibition or displacement. Usually inhibition stands for the change of the read-out against control, counted positive when it falls. A low value points to little suppression.

In the first experiment the target is HGFR (c-Met) (Homo sapiens, UniProt P08581). As to the kind of experiment: HGFR Continuous-Coupled Spectrophotometric Assay. The experiment is classed as biochemical. The note with it: HGFR enzyme 50 nM, Met-2 peptide substrate, 37° C. The protocol: The general procedure is as follows: compounds and kinase assay reagents are introduced into test wells. The assay is initiated by addition of the kinase enzyme. Enzyme inhibitors reduce the measured activity of the enzyme.
Chain of HGFR (c-Met) (P08581 974-1390): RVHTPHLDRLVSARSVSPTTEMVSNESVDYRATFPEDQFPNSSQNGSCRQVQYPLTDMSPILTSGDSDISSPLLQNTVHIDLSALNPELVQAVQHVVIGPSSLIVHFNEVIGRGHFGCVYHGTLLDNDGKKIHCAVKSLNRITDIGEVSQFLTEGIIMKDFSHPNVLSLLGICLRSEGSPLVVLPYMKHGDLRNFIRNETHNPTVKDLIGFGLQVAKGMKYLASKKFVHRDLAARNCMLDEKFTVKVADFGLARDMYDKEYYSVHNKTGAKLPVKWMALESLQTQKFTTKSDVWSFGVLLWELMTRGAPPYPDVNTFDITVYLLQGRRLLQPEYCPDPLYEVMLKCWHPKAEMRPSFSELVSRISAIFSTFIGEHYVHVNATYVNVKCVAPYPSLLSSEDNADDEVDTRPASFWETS
In the continuous-coupled spectrophotometric assay the time-dependent production of ADP by the kinase is determined by analysis of the rate of consumption of NADH by measurement of the decrease in absorbance at 340 nm. As the PK produces ADP it is re-converted to ATP by reaction with phosphoenol pyruvate and pyruvate kinase. Pyruvate is also produced in this reaction. Pyruvate is subsequently converted to lactate by reaction with lactate dehydrogenase, which simultaneously converts NADH to NAD.
HGFR Continuous-Coupled Spectrophotometric Assay
This assay analyzes the tyrosine kinase activity of HGFR on the Met-2 substrate peptide, a peptide derived from the activation loop of the HGFR.
• 1. […] Dissolve up in 200 mM HEPES, pH 7.5 at 10 mM stock. • 3. 1 M PEP (phospho-enol-pyruvate) in 200 mM HEPES, pH 7.5 • 4. 100 mM NADH (B-Nicotinamide Adenine Dinucleotide, Reduced Form) in 200 mM HEPES, pH 7.5 • 5. 4 M MgCl2 (Magnesium Chloride) in ddH2O 6. 1 M DTT (Dithiothreitol) in 200 mM HEPES, pH 7.5 • 7. 15 Units/mL LDH (Lactic Dehydrogenase) • 8. 15 Units/mL PK (Pyruvate Kinase) • 9. 5M NaCl dissolved in ddH2O • 10. Tween-20 (Protein Grade) 10% Solution • 11. 1 M HEPES buffer: (N-[2-Hydroxethyl]piperazine-N-[2-ethanesulfonic acid]) Sodium Salt. Dissolve in ddH2O, adjust pH to 7.5, bring volume to 1 L. Filter at 0.1 μm. • 12. […] 100% DMSO (SIGMA) • 14. […] Beckman DU-650 w/ micro cell holders • 18. Beckman 4-position micro cell cuvette Procedure:
Prep Dilution Buffer (DB) for Enzyme (For 30 mL prep) • 1. DB final concentration is 2 mM DTT, 25 mM NaCl2, 5 mM MgCl2, 0.01% Tween-20, and 50 mM HEPES buffer, pH 7.5. • 2. Make up 50 mM HEPES by adding 1.5 mL 1 M HEPES into 28.1 mL of ddH2O. Add rest of the reagents. Into 50 mL conical vial, add 60 μL of 1M DTT, 150 μL 5M NaCl2, 150 μL 1M MgCl2, and 30 μL of 10% Tween-20 to give total volume of 30 mL. • 3. Vortex for 5-10 seconds. • 4. Aliquot out DB at 1 mL/tube and label tubes as “DB HGFR” • 5. Note: This can be prepared and stored ahead of time. • 6. Freeze un-used aliquots in microcentrifuge tubes at −20° C. freezer.
Prep Compounds • 1. For compound dilution plate, add 4 μL of 10 mM stock into column 1 of plate, and bring volume to 100 μL with 100% DMSO. • 2. Set up the Precision 2000 dilution method. A final concentration of 200 μM compound in 50% DMSO, 100 mM HEPES (1:2 serial dilution).
Prep Coupled Enzymatic Buffer:
1. Final concentration in assay:
• 2. For a 10 mL reaction buffer add 10 μL of 1M PEP, 33 μL of 100 mM NADH, 50 μL of 4M MgCl2, 20 μL of 1M DTT, 6 μL of 500 mM ATP, and […] of 10 mM Met-2 peptide into 100 mM HEPES buffer pH 7.5 and vortex/mix. • 3. Add coupling enzymes, LDH and PK, into reaction mix. Mix by gentle inversion.
1. Spectrophotometer settings:
• 2. Add 85 μL of CE reaction mix into each well of assay plate. • 3. Add 5 μL of diluted compound into a well of the assay plate. • 4. Add 5 μL of 50% DMSO for negative control into last column of assay plate. • 5. Mix with multi-channel pipettor or orbital shaker. • 6. Pre-incubate for 10 minutes at 37° C. • 7. Add 10 μL of 500 nM HGFR to each well of assay plate; the final HGFR concentration is 50 nM in a total final volume of 100 μL. • 8. Measure activity for 10 minutes at λ=340 nm and 37° C.
Ki data were obtained using the HGFR Continuous-Coupled Spectrophotometric Assay, and IC50 data were obtained using the Cellular HGFR Autophosphorylation Assay, both of which are described above.
In turn, `CC(Oc1cc(-c2ccc(C(=O)N3CCS(=O)(=O)CC3)cc2)cnc1N)c1c(Cl)ccc(F)c1Cl` (stereo not drawn) [Example 5, 3-[1-(2,6-Dichloro-3-fluorophenyl)ethoxy]-5-{4-[(1,1-dioxidothiomorpholin-4-yl)carbonyl]phenyl)pyridine-2-amine] had a Ki of 31 nM. In turn, `CC(Oc1nc(-c2ccccc2NS(C)(=O)=O)cnc1N)c1c(Cl)ccc(F)c1Cl` (stereo not drawn) [Example 94, N-(2-{5-Amino-6-[1-(2,6-dichloro-3-fluoro-phenyl)-ethoxy]-pyrazin-2-yl}-phenyl)-methanesulfonamide] registered a Ki of 3790 nM.

For `CC(Oc1cc(-c2ccc(F)c(C#N)c2)cnc1N)c1c(Cl)ccc(F)c1Cl` (stereo not drawn) [Example 103, 5-{6-amino-5-[1-(2,6-dichloro-3-fluorophenyl)ethoxy]pyridin-3-yl}-2-fluorobenzonitrile], the Ki came to 340 nM. Same read-out and setting: for `CCS(=O)(=O)c1ccc(-c2cnc(N)c(OC(C)c3c(Cl)ccc(F)c3Cl)c2)cc1` (stereo not drawn) [Example 139, 3-[1-(2,6-dichloro-3-fluorophenyl)ethoxy]-5-(4-(ethylsulfonyl)phenyl]pyridin-2-amine] the value was 53 nM; for `CC(Oc1cc(-c2ccc(N3CCN(C)CC3)nc2)cnc1N)c1c(Cl)ccc(F)c1Cl` (stereo not drawn) [Example 63, 5-[1-(2,6-Dichloro-3-fluoro-phenyl)-ethoxy]-6′-(4-methyl-piperazin-1-yl)-[3,3′]bipyridinyl-6-ylamine], 35.3 nM; for `C[C@@H](Oc1nc(-c2ccc(C(=O)N3CCNCC3)cc2)cnc1N)c1c(Cl)ccc(F)c1Cl` [Example 48, (4-{5-Amino-6-[(R)-1-(2,6-dichloro-3-fluoro-phenyl)-ethoxy]-pyrazin-2-yl}-phenyl)-piperazin-1-yl-methanone], 27 nM. Same read-out and setting: as for `CC(Oc1cc(-c2ccc(C(=O)N3CCC(N(C)C)CC3)cc2)cnc1N)c1c(Cl)ccc(F)c1Cl` (stereo not drawn) [Example 6], the figure is 24 nM; as for `CC(O)c1cccc(-c2cnc(N)c(OC(C)c3c(Cl)ccc(F)c3Cl)c2)c1` (stereo not drawn) [Example 150, 1-(3-{6-amino-5-[1-(2,6-dichloro-3-fluorophenyl)ethoxy]pyridin-3-yl}phenyl)ethanol], 200 nM.

Molecule `CC(Oc1cc(-c2ccc(F)c(C(=O)N3CCC(N4CCCC4)CC3)c2)cnc1N)c1c(Cl)ccc(F)c1Cl` (stereo not drawn) [Example 55, (5-{6-Amino-5-[1-(2,6-dichloro-3-fluoro-phenyl)-ethoxy]-pyridin-3-yl}-2-fluoro-phenyl)-(4-pyrrolidin-1-yl-piperidin-1-yl)-methanone] came in with a Ki of 102 nM. On the same count and under the same terms, for `CC(Oc1cc(-c2ccc3nc(C(=O)N(C)C)cn3c2)cnc1N)c1c(Cl)ccc(F)c1Cl` (stereo not drawn) [Example 155, 6-{6-amino-5-[1-(2,6-dichloro-3-fluorophenyl)ethoxy]pyridin-3-yl}-N,N-dimethylimidazo[1,2-a]pyridine-2-carboxamide] the value was 40 nM; for `COc1ccc(-c2cnc(N)c(OC(C)c3c(Cl)ccc(F)c3Cl)c2)cc1CC#N` (stereo not drawn) [Example 149, (5-{6-amino-5-[1-(2,6-dichloro-3-fluorophenyl)ethoxy]pyridin-3-yl}-2-methoxyphenyl) acetonitrile], 370 nM. On the same count and under the same terms, as for `Cc1ccc(F)c(C(C)Oc2cc(-c3ccc(C(=O)N4CCC(N5CCCC5)CC4)cc3)cnc2N)c1Cl` (stereo not drawn) [Example 56, (4-{6-Amino-5-[1-(2-chloro-6-fluoro-3-methyl-phenyl)-ethoxy]-pyridin-3-yl}-phenyl)-(4-pyrrolidin-1-yl-piperidin-1-yl)-methanone], the figure is 173 nM; as for `CC(Oc1cc(-c2cnc(Cl)nc2)cnc1N)c1c(Cl)ccc(F)c1Cl` (stereo not drawn) [Example 115, 5-(2-chloropyrimidin-5-yl)-3-[1-(2,6-dichloro-3-fluorophenyl)ethoxy]pyridin-2-amine], 1500 nM. With `COc1cc(-c2cnc(N)c(OC(C)c3c(Cl)ccc(F)c3Cl)c2)ccc1CN1C[C@@H](C)N[C@@H](C)C1` (stereo partly drawn) [Example 27, 3-[1-(2,6-dichloro-3-fluorophenyl)ethoxy]-5-(4-{[(3R,5S)-3,5-dimethylpiperazin-1-yl]methyl}-3-methoxyphenyl)pyridin-2-amine], the affinity corresponds to a Ki of 21.6 nM. The same measure, in the same setting: as for `CS(=O)(=O)Nc1ccc(-c2cnc(N)c(OC3CCCCc4ccc(F)cc43)c2)cc1` (stereo not drawn) [Example 38, N-{4-[6-Amino-5-(3-fluoro-6,7,8,9-tetrahydro-5H-benzocyclohepten-5-yloxy)-pyridin-3-yl]-phenyl}-methanesulfonamide], the figure is 7120 nM; as for `CC(Oc1cc(-c2cnc(N3CCNCC3)nc2)cnc1N)c1c(Cl)ccc(F)c1Cl` (stereo not drawn) [Example 121, 3-[1-(2,6-dichloro-3-fluorophenyl)ethoxy]-5-(2-piperazin-1-ylpyrimidin-5-yl)pyridin-2-amine], 53 nM. Take `CC(Oc1cc(-c2ccc(C[C@H](N)C(=O)O)cc2)cnc1N)c1c(Cl)ccc(F)c1Cl` (stereo partly drawn) [Example 144, 4-{6-amino-5-[1-(2,6-dichloro-3-fluorophenyl)ethoxy]pyridin-3-yl}phenylalanine]: affinity was put at a Ki of 80 nM. Consider `COc1ncc(-c2cnc(N)c(OC(C)c3c(Cl)ccc(OC)c3Cl)c2)cn1` (stereo not drawn) [Example 117, 3-[1-(2,6-dichloro-3-methoxyphenyl)ethoxy]-5-(2-methoxypyrimidin-5-yl)pyridin-2-amine], for which the Ki came to 160 nM. On the same count and under the same terms, for `CC(Oc1cc(-c2ccc(C(=O)N3CCN(C4CCN(C)CC4)CC3)cc2)cnc1N)c1c(Cl)ccc(F)c1Cl` (stereo not drawn) [Example 7, 3-[1-(2,6-Dichloro-3-fluorophenyl)ethoxy]-5-(4-{[4-(1-methylpiperidin-4-yl)piperazin-1-yl]carbonyl)phenyl)pyridin-2-amine] the value was 26 nM; for `CCN(CCO)C(=O)c1ccc(-c2cnc(N)c(OC(C)c3c(Cl)ccc(F)c3Cl)c2)cc1` (stereo not drawn) [Example 1, 4-{6-Amino-5-[1-(2,6-dichloro-3-fluorophenyl)ethoxy]-pyridin-3-yl}N-ethyl-N-(2-hydroxyethyl)benzamide], 39 nM.

In turn, `CC(Oc1cc(-c2ccc(C3CCNCC3)cc2)cnc1N)c1c(Cl)ccc(F)c1Cl` (stereo not drawn) [Example 125, 3-[1-(2,6-dichloro-3-fluorophenyl)ethoxy]-5-(4-piperidin-4-ylphenyl)pyridin-2-amine] showed a Ki of 25 nM. Still for that read-out and setting: as for `COc1cc(-c2cnc(N)c(OC(C)c3c(Cl)ccc(F)c3Cl)c2)ccc1O` (stereo not drawn) [Example 140, 4-{6-amino-5-[1-(2,6-dichloro-3-fluorophenyl)ethoxy]pyridin-3-yl}-2-methoxyphenol], the figure is 39 nM.

The same experiment, now with this note: compound at 1 μM.
In the case of `CC(Oc1cc(-c2ccc(C(=O)N3CCS(=O)(=O)CC3)cc2)cnc1N)c1c(Cl)ccc(F)c1Cl` (stereo not drawn) [Example 5, 3-[1-(2,6-Dichloro-3-fluorophenyl)ethoxy]-5-{4-[(1,1-dioxidothiomorpholin-4-yl)carbonyl]phenyl)pyridine-2-amine], 1 µM produced 96% inhibition.

For `CC(Oc1cc(-c2ccc(C(=O)N3CCC(N(C)C)CC3)cc2)cnc1N)c1c(Cl)ccc(F)c1Cl` (stereo not drawn) [Example 6], 1 µM produced 95% inhibition. Same read-out and setting: as for `CC(Oc1cc(-c2ccc(C(=O)N3CCC(N4CCCC4)CC3)cc2)cnc1N)c1cccc(C(=O)NCCc2cccc(O)c2)c1` (stereo not drawn) [Example 87, 3-(1-{2-Amino-5-[4-(4-pyrrolidin-1-yl-piperidine-1-carbonyl)-phenyl]-pyridin-3-yloxy}-ethyl)-N-[2-(3-hydroxy-phenyl)-ethyl]-benzamide], the figure is 20%; as for `CC(Oc1cc(-c2ccc(C(=O)N3CCN(C4CCN(C)CC4)CC3)cc2)cnc1N)c1c(Cl)ccc(F)c1Cl` (stereo not drawn) [Example 7, 3-[1-(2,6-Dichloro-3-fluorophenyl)ethoxy]-5-(4-{[4-(1-methylpiperidin-4-yl)piperazin-1-yl]carbonyl)phenyl)pyridin-2-amine], 96%; as for `CCN(CCO)C(=O)c1ccc(-c2cnc(N)c(OC(C)c3c(Cl)ccc(F)c3Cl)c2)cc1` (stereo not drawn) [Example 1, 4-{6-Amino-5-[1-(2,6-dichloro-3-fluorophenyl)ethoxy]-pyridin-3-yl}N-ethyl-N-(2-hydroxyethyl)benzamide], 94%.

For the origin of these results see US20060178374A1, “Aminoheteroaryl compounds as protein kinase inhibitors” (AGOURON PHARMACEUTICALS, INC., priority 2004, published 2006).
